Experimental data published in patent publication US8188138B2, “Sulphonylpyrrole hydrochloride salts as histone deacetylases inhibitors” (4SC AG, priority 2005, dated 2012).
pEC50, pIC50: −log10 of the molar value. Like-named read-outs stand apart in the source and are kept apart here.

How the values were obtained:
Type in all cases: cell-based
[1] = test system: HeLa cervical carcinoma cells; experiment: Cellular cytotoxicity assay (Alamar Blue), HeLa; conditions: Homo sapiens, 72 h, range stated for the listed group
Experimental: (§1) The anti-proliferative activity of the histone deacetylase inhibitory compounds as described herein, was evaluated using the following cell lines: HeLa and HeLa—KB (cervical carcinoma), H460 (non small cell lung cancer), A549 (non-small cell lung cancer), MCF7 (breast carcinoma), MCF10A (normal, non tumorigenic breast epithelial), MDA-MB468 (breast carcinoma), MDA-MB435 (breast carcinoma), MDA-MB231 (breast carcinoma), SKBR-3 (breast carcinoma), SKOV-3 (ovarial carcinoma), A-2780 (ovarial carcinoma), RKO (colon carcinoma), HCT-15 (colon carcinoma), HCT-116 (colon carcinoma), PC3 (prostate carcinoma), BPH1 (benign prostate hyperplasia), AsPC1 (pancreatic carcinoma), Cal27 (tongue carcinoma), A-431 (vulva carcinoma), HeclA (endometrial carcinoma), Saos-2 (osteosarcoma), U87MG (glioblastoma), WM266-4 (melanoma), K562 (chronic myeloid carcinoma), EOL1 (acute hypereosinophilic myeloid leukemia), CCRF-CEM and CCRF-CEM VCR1000 (acute lymphoblastic leukemia sensitive and resistant towards Vincristine). For quantification of cellular proliferation/living cells the Alamar Blue (Resazurin) cell viability assay was applied (O'Brien et al. Eur J Biochem 267, 5421-5426, 2000). In this assay Resazurin is reduced to the fluorescent resorufin by cellular dehydrogenase activity, correlating with viable, proliferating cells. The examples were dissolved as 20 mM solutions in dimethylsulfoxide (DMSO) and subsequently diluted in semi-logarithmic steps. Cell lines were seeded at respective density into 96 well flat bottom plates in a volume of 200 μl per well. 24 hours after seeding 1 μl each of the compound dilutions were added into each well of the 96 well plate. Each compound dilution was tested as quadruplicates. Wells containing untreated control cells were filled with 200 μl DMEM medium containing 0.5% v:v DMSO. The cells were then incubated with the substances for 72 hours at 37° C. in a humidified atmosphere containing 5% carbon dioxide. To determine the viability of the cells, 20 μl of an Resazurin solution (Sigma; 90 mg/l) were added. After 4 hours incubation at 37° C. the fluorescence was measured at an extinction of 544 nm and an emission of 590 nm. For the calculation of the cell viability the emission value from untreated cells was set as 100% viability and the emission rates of treated cells were set in relation to the values of untreated cells. Viabilities were expressed as % values. The corresponding IC50 values of the compounds for cytotoxic activity are determined from the concentration-effect curves by means of non-linear regression.

[2] = test system: histone H3 hyperacetylation in HeLa cervical carcinoma cells; experiment: Cellular histone H3 hyperacetylation assay; conditions: Homo sapiens, 24 h, range stated for the listed group, read-out: Induction of histone H3 hyperacetylation EC50
Description: To assess the cellular efficacy of a histone deacetylase inhibitor in vitro, an assay was set up in black clear-bottom 96-well plates and optimized for use on the Cellomics “ArrayScan II” platform for a quantitative calculation of histone acetylation. The protocol uses a polyclonal rabbit antibody, specifically binding to acetylated lysine 23 or, alternatively, acetylated lysine 9+14 of human histone H3 on fixed cells with an Alexa Fluor 488 labeled goat anti rabbit-IgG used for counterstaining (modified from Braunger et al. AACR annual conference 2003, Abstract 4556). 5×10^3 HeLa cervical carcinoma cells/well (ATCC CCL-2) in 200 μl Dulbecco's modified Eagle's medium (DMEM) containing 10% fetal calf serum are seeded at day 1 in Packard view plates and incubated for 24 h under standard cell culture conditions. On day 2, 1 μl test compound (200× final concentration) is added and incubation continued for further 24 h. On day 3, the culture medium is discarded and attached cells fixed for 15 min at room temperature by addition of 100 μl fixation buffer (3.7% v:v formaldehyde in phosphate buffered saline/PBS). After discarding the fixation buffer and one wash with blocking solution (1% BSA, 0.3% Tween 20 in PBS), cells are permeabilized at room temperature by addition of 100 μl/well permeabilization buffer (30.8 mM NaCl, 0.54 mM Na2HPO4, 0.31 mM KH2PO4, 0.1% v:v […]) for 15 min at room temperature. After discarding the permeabilization buffer and washing twice with 100 μl/well blocking solution at room temperature, the 1st antibody (anti-K23 histone H3 antibody, Cell Signaling No. 9674 or, alternatively, anti-K9+14 histone H3 antibody, Calbiochem No. 382158) in blocking solution (50 μl/well) is added. After incubation for 1 h at room temperature, the wells are washed twice at room temperature with 100 μl/well blocking solution before addition of the 2nd antibody (goat-anti-rabbit Alexa Fluor 488; MoBiTec No. A-11008) in blocking solution (50 μl/well). After further incubation for 1 h at room temperature, wells are washed twice with 100 μl/well blocking solution at room temperature. Finally, 100 μl/well PBS are added and image analysis performed on the Cellomics “ArrayScan II” platform. For EC50 determination, the percentage of positive cells showing nuclear fluorescence is determined and EC50 calculation done from concentration-effect curves by means of non-linear regression. For calibration, a positive (reference HDAC inhibitors like SAHA or NVP LBH-589) and a negative control were included.

[3] = test system: RKO colon carcinoma cells; experiment: Cell-cycle dependent cytotoxicity, RKO exop21 cell system; conditions: Homo sapiens, 72 h, range stated for the listed group
Experimental: For determination of cell-cycle dependent cytotoxicity, the RKO exop21 cell system was applied (Schmidt et al. Oncogene 19: 2423-2429, 2000). Briefly, RKO cells with/without p21^waf1 expression (2×10^4 cells/well induced, 6×10^3 cells/well not induced) were treated with the examples for 72 h and metabolic activity quantified as described before. The expression of p21^waf1 was induced by treatment with Pronasterone A, causing a complete proliferation arrest of RKO cells in the G1 and G2 phases of the cell division cycle.

A549 cell line = experiment: Combination experiment with Trail in A549; conditions: example at about its IC50 combined with Trail
Experimental: A549 non-small cell lung cancer, MDA-MB468 breast cancer and […] colorectal cancer cell lines were pretreated with the examples for 4 h before adding the chemotherapeutic agents or Trail and further incubation for 72 h total. The IC50 values of these combinations were determined from concentration-effect curves and compared to IC50 values of cell treated with the anti-cancer agent only.

[4] = test system: MDA-MB468 breast cancer cells; experiment: Breast cancer cell differentiation assay (Nile Red, flow cytometry); conditions: 24 h; for Neutral & phospholipids (%): differentiated cells; for Phospholipids (%): undifferentiated cells
Experimental: For quantification of MDA-MB468 breast cancer cell differentiation (described by Munster et al. Canc. Res. 61(23), pp 8492, 2001), 1× E6 cells were seeded in 10 cm cell culture dishes and, after cultivation for 24 h, treated with HDI for further 24 h. Finally, cells were collected by trypsination, washed twice with PBS and resuspended in 1 ml of staining solution ([…] Nile Red in PBS). After incubation for at least 5 min at room temperature, cells were analysed by flow cytometry on a FACS Calibur device (Ex 488 nm, Em. at 530 nm/FL-1 and >630 nm/FL-3). From respective histograms the percentage of cells with fluorescence at 650 nm (phospholipids) and 530 nm+650 nm (phospho- and neutral lipids) were calculated. For microscopic analysis, MDA-MB468 cells were cultivated on two-well chamber slides, treated with test compound for 24 h, fixed with 1.5 vol % glutaraldehyde/PBS and finally treated with staining solution. After washing with PBS, cells were analysed by fluorescence microscopy.
The percentage of differentiated cells with neutral and phospholipids as well as undifferentiated cells with phospholipids only are summarized in the table 5.

[5] = test system: broad selection of non-malignant cell lines and fully transformed malignant cancer cell lines; experiment: Anti-proliferative activity across cell line panel (Alamar Blue); conditions: mean over non-malignant and malignant cell lines
Experimental: as §1

[6] = arrested RKO cells, p21waf1 expressed, read-out: RKO arrested (p21^waf1 expressed) IC50
[7] = proliferating RKO cells, read-out: RKO proliferating IC50

| Compound | pIC50 [1] | pEC50 [2] | pIC50 [3, 6] | pIC50 [3, 7] | Effect of combination with Trail (A549 cell line) | Neutral & phospholipids (%) ([4]; 0.8 μM) | Phospholipids (%) ([4]; 0.8 μM) | pIC50 [5] | Neutral & phospholipids (%) ([4]; 2 μM) | Phospholipids (%) ([4]; 2 μM) | Neutral & phospholipids (%) ([4]; 5 μM) | Phospholipids (%) ([4]; 5 μM) |
| --- | --- | --- | --- | --- | --- | --- | --- | --- | --- | --- | --- | --- |
| Nc1ccccc1NC(=O)/C=C/c1ccn(S(=O)(=O)c2ccc(-c3ccccc3)cc2)c1 [Compound 7, (E)-N-(2-Amino-phenyl)-3-[1-(biphenyl-4-sulfonyl)-1H-pyrrol-3-yl]-acrylamide] | 4.67 to 6.10 | 4.29 to 5.67 |  |  |  |  |  |  |  |  |  |  |
| O=C(/C=C/c1ccn(S(=O)(=O)c2ccc(-c3ccccn3)s2)c1)NO [Compound 24, (E)-N-Hydroxy-3-[1-(5-pyridin-2-yl-thiophene-2-sulfonyl)-1H-pyrrol-3-yl]-acrylamide] | 5.30 to 7.15 | 4.80 to 7.10 | 4.82 to 6.35 | 5.29 to 6.82 | synergism is highly likely | 67.3 | 27.9 | 6.24 |  |  |  |  |
| CN(C)c1ccc(S(=O)(=O)n2ccc(/C=C/C(=O)NO)c2)cc1 [Compound 4, (E)-3-[1-(4-Dimethylamino-benzenesulfonyl)-1H-pyrrol-3-yl]-N-hydroxy-acrylamide] | 4.67 to 6.10 | 4.29 to 5.67 |  |  |  |  |  |  |  |  |  |  |
| CN(C)Cc1ccc(S(=O)(=O)n2ccc(/C=C/C(=O)NO)c2)cc1 [Compound 10, (E)-3-[1-(4-Dimethylaminomethyl-benzenesulfonyl)-1H-pyrrol-3-yl]-N-hydroxy-acrylamide] | 5.30 to 7.15 |  | 4.82 to 6.35 | 5.29 to 6.82 | synergism is highly likely |  |  | 5.34 | 55.5 | 41.6 | 70.2 | 25.2 |
| O=C(C=Cc1ccn(S(=O)(=O)Cc2ccccc2)c1)NO [Compound 2, N-Hydroxy-3-(1-phenylmethanesulfonyl-1H-pyrrol-3-yl)-acrylamide] | 4.67 to 6.10 | 4.29 to 5.67 |  |  |  |  |  |  |  |  |  |  |
